Consider 1 molecule from patent EP0268663B1, “PHOSPHOPEPTIDES” (THE UNIVERSITY OF MELBOURNE, priority 1986, dated 1995).

Square brackets hold non-standard residues; d marks the D form. Peptide text beside a SMILES is read from it. pS = N[C@@H](COP(=O)(O)O)C(=O)O

Data set [1] is described as follows: Sequestration of calcium phosphate by the peptide. It counts as physicochemical. The settings on record: 10mg/ml solution at pH 7.0; metastable supersaturated solution. Here is the method: The active peptides can sequester calcium phosphate and other salts of divalent metal ions. One mole of T1 binds 16 mole of CaHPO₄ such that a 10mg/ml solution of T1 at pH 7.0 can solubilize 60mM CaHPO₄ producing a metastable supersaturated solution with respect to calcium phosphate species. With chloride as the counter ion one mole of T1 binds only 5 mole of Ca⁺⁺ binding only to serine phosphates. One mole of T1 with about 16 mole of CaHPO₄ bound (M.W. 4883) will henceforth be referred to as calcium phosphate T1.

Another data set in a line: Intra-Oral Caries Test. The class given is in vivo. Particulars: plaque exposed twice a day to the peptide T1 solution (1.8% w/v calcium phosphate T1). Here is the method: The anticariogenicity of phosphopeptide T1 was determined using a modification of the intra-oral caries test of Koulourides and Ostrom (Caries Res. 10:442-482, 1976). Enamel slabs were inset in a removable intra-oral appliance to simulate an approximal area. This was done on both sides of the removable appliance (left and right). The appliance was worn to allow plaque accumulation in the simulated approximal areas. Eight times a day the appliance was removed and placed in a solution at 37°C. The solution was 2% w/v sucrose, 2% w/v glucose, 140 mM KCl, 20mM NaCl at pH 7.0. Twice a day the right side enamel slabs received exposure to a solution containing 1.8% w/v calcium phosphate T1 in 140 mM KCl, 20 mM NaCl at pH 7.0, while the left side received only the salt solution. At the completion of the experiment the enamel slabs were removed, sectioned and subjected to microradiography and microhardnass testing. […] The results were confirmed by microhardness analysis. Plaque was also taken from both sides of the appliance and analysed for calcium phosphate, serine phosphate and peptide T1 using a competitive, quantitative, enzyme-linked immunosorbent assay (ELISA) utilising monoclonal antipeptide T1 antibodies.

As for `CC[C@H](C)[C@H](NC(=O)[C@H](COP(=O)(O)O)NC(=O)[C@H](CCC(=O)O)NC(=O)[C@H](C)NC(=O)[C@H](CCC(=O)O)NC(=O)[C@H](CCSC)NC(=O)[C@@H](N)CCC(=O)O)C(=O)N[C@@H](COP(=O)(O)O)C(=O)N[C@@H](COP(=O)(O)O)C(=O)N[C@@H](COP(=O)(O)O)C(=O)N[C@@H](CCC(=O)O)C(=O)N[C@@H](CCC(=O)O)C(=O)N[C@H](C(=O)N[C@H](C(=O)N1CCC[C@H]1C(=O)N[C@@H](CC(N)=O)C(=O)N[C@@H](COP(=O)(O)O)C(=O)N[C@H](C(=O)N[C@@H](CCC(=O)O)C(=O)N[C@@H](CCC(N)=O)C(=O)N[C@@H](CCCCN)C(=O)O)C(C)C)C(C)C)[C@@H](C)CC` [Phosphopeptide T1] (H-EMEAE[pS]I[pS][pS][pS]EEIVPN[pS]VEQK-OH), the CaHPO₄ solubilized in data set [1] came out at 60 mM. In “Intra-Oral Caries Test”, the “level of peptide in plaque (ELISA)” value is recorded as “at least 0.4 % w/wet wt of plaque”.
